For series [1], the target named is T1, VEGF (Homo sapiens, UniProt P15692).
T1 sequence (P15692 27-191 isoform P15692-4): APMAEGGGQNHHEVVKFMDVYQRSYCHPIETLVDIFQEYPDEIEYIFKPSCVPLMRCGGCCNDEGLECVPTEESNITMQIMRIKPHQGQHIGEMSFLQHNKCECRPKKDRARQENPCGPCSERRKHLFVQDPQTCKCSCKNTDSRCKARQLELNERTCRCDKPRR
The series is described as follows: Dot-blot binding assay, VEGF. How it is done: (§1) Binding data for the constituent aptamers and the multivalent aptamers were collected by dot-blot assays in which radio-labeled aptamer is incubated with protein target and then forced through a sandwich of nitrocellulose over nylon and the results shown in FIG. 22. Protein-associated radio-label is captured on the nitrocellulose membrane while the balance of the radio-label is captured on the nylon membrane. The radio-label data is collected on a phosphorimaging plate. […] The multivalent aptamers TK.131.012.A (SEQ ID NO. 9) and TK.131.012.B (SEQ ID NO. 10) were made synthetically.

Series [2] has as its target T2, PDGF BB (Homo sapiens, UniProt P01127). The series is described as follows: ERK phosphorylation assay in 3T3 cells. The format is cell-based, mouse. Further details: purchased R&D Systems, Minneapolis, Minn. The following applies: 10 ng/ml PDGF-BB, 30 minutes. How it is done:
ERK phosphorylation was used to test whether ARC124 (SEQ ID NO:11) retained its functionality after the incorporation of CpG motifs into the aptamer sequence. One hundred and fifty thousand 3T3 cells (a mouse fibroblast cell line which contains PDGF-R) were plated into an appropriate number of wells on a 12 well plate one day prior to the experiment and serum starved in 0.5% FBS overnight. Cells were treated with 10 ng/ml PDGF-BB (R&D Systems, Minneapolis, Minn.) in the presence or absence of CpG-island containing PDGF aptamers for 30 minutes. […] Protein concentration in cell lysates was determined using BIO-RAD protein assay reagent according to manufacturer's recommendations (Bio-Rad, Hercules, Calif.). Lysates were prepared by adding NuPage LDS Sample Buffer 4× with 0.1M DTT to a final concentration of 1× (invitrogen, Carlsbad, Calif.) and incubated at 70° C. for 7 minutes. Forty micrograms of total protein was loaded into each well of a NuPage 10%, Bis-Tris gel (Invitrogen, Carlsbad, Calif.). The gel was run at 100 mAmp for 1 hour. Gel was then transferred to a HyBond ECL nitrocellulose membrane (Amersham, Piscataway, N.J.) at 250 mAmp for 3 hours. After transfer, the nitrocellulose was blocked with 5% BSA (Sigma, St. Louis, Mo.) in PBS for one hour at room temperature. The nitrocellulose membrane was incubated with a p44/42 MAP Kinase antibody overnight at 4° C. […]

Series [3] concerns the target T2, PDGF BB. Description: Dot-blot binding assay, PDGF BB. As for the experimental part:
as §1

Strand notation (5' to 3'): a small letter for the sugar, then the base; units joined by * are phosphorothioate-linked, units joined directly phosphodiester-linked; [ ] holds rarer units or linkages, { } end groups; capitals alone tell only the bases. [invdT] = inverted (3'-3') thymidine; d = 2'-deoxy (DNA); m = 2'-O-methyl

T2 sequence (P01127 82-190 limits assumed): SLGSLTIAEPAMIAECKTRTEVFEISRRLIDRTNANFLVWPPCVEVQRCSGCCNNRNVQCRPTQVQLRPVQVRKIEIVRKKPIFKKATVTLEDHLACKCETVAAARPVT

Usually Kd stands for the constant that tells how readily two partners part at equilibrium. Low values mean higher affinity, high ones lower affinity. Take “5′-mAmUmGmCmAmGmUmUmUmGmAmGmAmAmGmUmCmGmCmGmCmAmU-[3T]-3′ (SEQ ID NO: 7) (AUGCAGUUUGAGAAGUCGCGCAU; all 2'-O-methyl, [invdT] at 3' end, backbone not given here) [ARC245]”: the Kd in series [1] was about 2 nM. For “CpGARC124short: PDGF aptamer ARC124 with CpG motif appended (SEQ ID NO:20) (AACGTTCGAGCAGGCTACGGCACGTAGAGCATCACCATGATCCTGC; synthetic aptamer; (1)..(11) phosphorothiate backbone between nucleotides 1-11; (44)..(46) phosphorothiate backbone between nucleotides 44-46)”, the “phosphorylation of ERK” value in series [2] is reported as “can block phosphorylation of ERK”. Turning to “LongCpGARC124: PDGF aptamer ARC124 with CpG motif appended (SEQ ID NO:21) (dG*dT*dG*dA*dA*dC*dG*dT*dT*dC*dG*dA*dG*dCdAdGdGdCdTdAdCdGdGdCdAdCdGdTdAdGdAdGdCdAdTdCdAdCdCdAdTdGdAdTdCdCdT*dG*dC[invdT]; further chemistry not fully specified)”, the “phosphorylation of ERK” value in series [2] is “can block phosphorylation of ERK”. As for “TK.131.012.A: PDGF/VEGF binding multivalent aptamer (SEQ ID NO:9) (CAGGCTACGAUGCAGUUUGAGAAGUCGCGCAUCGTAGAGCATCAGAAATGATCCTG; sugars from the 5' end d9 m23 d24, 3' [invdT], backbone not given here; further chemistry not fully specified)”, the Kd in series [1] and in series [3] was about 10 nM in each case.

In the case of “TK.131.012.B: PDGF/VEGF binding multivalent aptamer (SEQ ID NO: 10) (CAGGCTACGUGCAGUUUGAGAAGUCGCGCACGTAGAGCATCAGAAATGATCCTG; sugars from the 5' end d9 m21 d24, 3' [invdT], backbone not given here; further chemistry not fully specified)”, the Kd in series [1] was about 5 nM; in series [3], about 10 nM.
